Patent publication US20210017607A1, “Methods of Predicting Responsiveness to Cancer Therapies” (The University of Chicago, priority 2019, published 2021)

Tests used:
[1] = test system: Myc-CAP tumors with Intermediate tumor cell intrinsic levels of STING; assay: Survival of mice bearing STING-overexpressing Myc-CAP tumors; format: in vivo, mouse; settings: DMXAA single intra-tumoral dose
Procedure: FIG. 52. STING agonist treatment is protective to mice bearing Myc-CAP tumors with Intermediate (not high) tumor cell intrinsic levels of STING. Syngeneic mice bearing Myc-CAP wild-type (WT) and STING overexpressed (STING OE; clone 34) or STING intermediate (STING OE; clone 35) tumors (200 mm^3) were treated with DMXAA ([…] intra-tumoral dose). Tumors were monitored until cut-off tumor volume of 2500 mm^3, and Kaplan Meier curves were plotted. n=3 mice per cohort.

[2] = test system: Myc-CAP (STING^lo) cancer cells; assay: IFNβ1 ELISA of supernatants after DMXAA treatment; format: cell-based, mouse; settings: 36 hours
Procedure: (§1) FIGS. 15A-15E. Differential STING pathway activation within B6-Myc (STING^hi) cell lines and BMDMs relative to Myc-CAP (STING^lo) cells. (15A, 15B) The indicated cancer cell lines and BMDMs were treated with DMXAA (mouse STING agonist) for 1 and 24 hours, respectively, and protein extracts were interrogated for cGAS/STING pathway activation with the indicated antibodies by Western blotting. Supernatants were collected from for IFNβ1 ELISA following 36 hours of treatment with DMXAA (15C, 15D). (15E) Syngeneic Myc-CAP (STING^lo) tumors were processed into single cell suspensions and used for phycoerythrin-based sorting of CD45+ cellular fractions. Equal numbers of cells from these fractions were stimulated with DMXAA. Supernatants were collected at 36 hrs for detection of IFNB1 by ELISA; n=3 independent experiments; Significance/p-values were calculated by one-way Anova (for 15C & 15E) or paired t-test (for 15D); TAM=tumor associated macrophage; s.e.=short exposure; l.e.=long exposure.
Cancer Cell Lines. Transgenic c-myc” prostate tumor derived cell line, Myc-CAP) (STING^lo) was obtained from ATCC and passaged in 1× DMEM (without phenol red) containing 10% fetal bovine serum, 1% penicillin-streptomycin and 2% L-glutamine. The corresponding c-myc^hi line derived from a C57BL6 generated background were grown for in vitro studies, using same culture conditions as for Myc-CAP. […]

[3] = test system: cGAS/STING signaling pathway components p-TBK1 and p-IRF3; assay: Western blotting of cGAS/STING pathway activation; format: cell-based, mouse
Procedure: as §1
(§2) Western Blot Analysis. RIPA and T-PER buffer (Thero Scientific®), supplemented with protease (Roche®) and HALT phosphatase inhibitor cocktail (Roche®), were used for preparation of lysates from in vitro cell lines and whole tumor chunks, respectively. For western blotting, the following antibodies were used from Cell Signaling Technology®: Polyclonal rabbit anti-mouse-phospho-γH2AX, phospho-AKT, total AKT, cGAS, STING, phospho-IRF3, total IRF3, phospho-TBK1, total TBK1, PTEN, β-actin and GAPDH. Monoclonal anti-mouse PAR antibody was obtained from Trevigen®. Images of scanned blots were processed using ADOBE Photoshop®.

Pi3K enzymatic activity = assay: Intratumoral target inhibition by western blotting; format: in vivo, mouse; settings: B6-Myc and Myc-CAP tumors; 30 mg/kg oral gavage daily 7 days
Procedure: (§3) FIGS. 18A and 18B. Buparlisib and Rucaparib inhibit intratumoral Pi3K and PARP enzymatic activity, respectively, within B6-Myc (STING^hi) and Myc-CAP (STING^lo) tumors. Subcutaneous Myc-CAP (STING^lo) and B6-Myc (STING^hi) tumors at 400-500 mm^3 volumes were treated with either buparlisib (pan-PI3K inhibitor, 30 mg/kg) or rucaparib (PARP inhibitor, 150 mg/kg) by oral gavage daily for 7 days. At end of treatment, both (18A) B6-Myc (STING^hi) and (18B) Myc-CAP (STING^lo) tumors were harvested and protein extracts utilized for assessment of target inhibition with the indicated antibodies by western blotting. n=2 mice per treatment group.
as §2

PARP = assay: In vitro target inhibition by western blotting (PARylation); format: cell-based, mouse
PARP enzymatic activity = assay: Intratumoral target inhibition by western blotting; format: in vivo, mouse; settings: B6-Myc and Myc-CAP tumors; 150 mg/kg oral gavage daily 7 days
Procedure: as §3, §2

Cc1ccc2c(=O)c3cccc(CC(=O)O)c3oc2c1C [DMXAA, 5,6-Dimethylxanthenone-4-acetic Acid]
survival (Kaplan Meier) [1]: protective
induction in IFN-β levels [2]: not observed
activation of p-TBK1 and p-IRF3 ([3]; B6-Myc (STING^hi) cells): activated
activation of c-GAS/STING signaling pathway ([3]; BMDMs): activated the c-GAS/STING signaling pathway
activation of p-TBK1 and p-IRF3 ([3]; Myc-CAP (STING^lo) cells): not observed

Nc1cc(C(F)(F)F)c(-c2cc(N3CCOCC3)nc(N3CCOCC3)n2)cn1 [buparlisib]
intratumoral Pi3K enzymatic activity (Pi3K enzymatic activity): inhibit

CNCc1ccc(-c2[nH]c3cc(F)cc4c3c2CCNC4=O)cc1 [rucaparib]
concentration that achieved complete target inhibition in vitro (PARP; B6-Myc cells (FIG. 17B)): 500 nM
concentration that completely inhibits PARylation (PARP; B6-Myc in vitro): 500 nm
complete target inhibition concentration (PARP; Myc-CAP cells (FIG. 29B)): 500 nM
intratumoral PARP enzymatic activity (PARP enzymatic activity): inhibit
